Where two headings read alike, the source gives them in different places. Marks after values point to notes of the source that are not given here.
What was measured:
hGCGR HFD/STZ mice = assay: Antihyperglycemic efficacy in hGCGR HFD/STZ mice (acute, chronic, combination with des-fluoro-sitagliptin); type: in vivo, hGCGR mouse
Text: The present study made use of a line of hGCGR-expressing mouse (“hGCGR mouse”) generated previously by substituting the hGCGR gene for the mouse GCGR gene. These mice were crossed with C57BL/6J.ob/+ mice (Jackson Laboratories, Bar Harbor, ME) to obtain an hGCGR.ob/+ mouse line. The hGCGR.ob/+ mice were then intercrossed to obtain hGCGR.ob/ob, hGCGR.ob/+, and hGCGR.+/+ mice (with the hGCGR.ob/+ and hGCGR.+/+ mice serving as littermate controls). […] obese (DIO) hGCGR mice were generated by maintaining hGCGR mice on a high-fat diet (HFD) in which 45–60% of calories were in fat (Product S3282, Bio-Serv, Frenchtown, NJ). High-fat-diet-streptozotocin-treated (HFD/STZ) diabetic mice were generated in-house as previously described.
Acute glucose lowering was studied in non-fasted hGCGR.ob/ob mice and HFD/STZ mice administered single doses p.o. of 1, 3 and 10 mg/kg GRA1 in 10 mL/kg 0.5% aqueous methylcellulose. Animals were fasted during the interval between dosing and the final blood glucose measurement. Glucose was measured in blood from tail bleeds using a OneTouch glucometer. In the experiments with hGCGR HFD/STZ mice, treatment groups were matched with respect to body weight and blood glucose levels.
Animals were dosed chronically with GRA1 and the DPP-4 inhibitor des-fluoro-sitagliptin by administering these agents as food admixtures. The admixtures were prepared in-house and by Research Diets (New Brunswick, NJ), with drug concentrations adjusted weekly on the basis of average food consumption and animal weight to provide targeted daily doses. In the GRA1 experiments, the targeted doses were 3, 6, 10, and 30 mg/kg•day. In des-fluoro-sitagliptin experiments, the targeted dose was 200 mg/kg•day, a relatively high amount necessary because this compound has a half-life in rodents of 1–2 h.
Plasma glucagon and active GLP-1 were measured using commercial ELISA kits (Linco Research Immunoassay, St. Charles, MO). […] Plasma insulin was determined by ELISA with a commercial kit (ALPCO Diagnostics, Windham, NH). Plasma concentrations of glycated hemoglobin A1c (HbA1c) were measured using a Micromat II test kit from Bio-Rad Laboratories (Hercules, CA). Total cholesterol, low-density lipoprotein cholesterol (LDL-c) and non-LDL-c, and aspartate aminotransferase were measured using a Roche P Modular Clinical Chemistry analyzer (Indianapolis, IN).
Figure 5 GRA1 lowers glucose in hGCGR HFD/STZ mice and further enhances the efficacy of a DPP-4 inhibitor. (A) Mean (±SEM) blood glucose hGCGR HFD/STZ mice treated with a single dose of 1, 3, or 10 mg/kg GRA1. (B) Non-fasted blood glucose concentrations in hGCGR HFD/STZ mice treated for 6 weeks with 10 mg/kg·day GRA1, 200 mg/kg·day des-fluoro-sitagliptin (des-F-sita), or the two agents in combination. (Additional data from this study are in Table 4.) *p<0.05, **p<0.01, and ***p<0.001 versus HFD/STZ controls; ^#non-significant (p>0.05) versus non-STZ controls; n = 8–15 animals per group.

[1] = biological target: T1, GIPR (glucose-dependent insulinotropic peptide receptor) (Homo sapiens, UniProt P48546); assay: Inhibition of GIP-stimulated cAMP production in CHO cells expressing GIPR; type: cell-based
T1 sequence (P48546 22-466): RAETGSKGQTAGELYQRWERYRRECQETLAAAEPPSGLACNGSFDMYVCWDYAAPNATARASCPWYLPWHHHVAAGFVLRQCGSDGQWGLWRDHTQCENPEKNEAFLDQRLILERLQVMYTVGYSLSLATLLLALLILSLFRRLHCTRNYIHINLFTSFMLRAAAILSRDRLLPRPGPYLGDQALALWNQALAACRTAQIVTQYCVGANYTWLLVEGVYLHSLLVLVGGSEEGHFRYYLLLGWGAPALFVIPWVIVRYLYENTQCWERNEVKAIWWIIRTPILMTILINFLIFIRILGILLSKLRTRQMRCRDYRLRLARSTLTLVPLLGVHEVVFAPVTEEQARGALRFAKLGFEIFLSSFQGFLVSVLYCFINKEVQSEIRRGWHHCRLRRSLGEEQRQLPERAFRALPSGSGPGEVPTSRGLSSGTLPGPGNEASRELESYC
Method: Transfected Chinese hamster ovary (CHO) cell lines were acquired and maintained as previously described [17], [20]. These included separate cell lines stably expressing human GCGR (hGCGR), mouse GCGR, rhesus GGCR, glucose-dependent insulinotropic peptide receptor (GIPR), GLP-1 receptor (GLP-1R), pituitary adenylate cyclase-activating polypeptide receptor type 1 (PAC1R), and vasoactive adenylate cyclase-activating polypeptide receptor type 2 (VPAC2R). […] Functional antagonism was assayed by measuring the production of cAMP in intact CHO cells stimulated by agonists specific for their cognate receptors (i.e., glucagon for GCGR-expressing cell lines, GIP for the GIPR-expressing line, etc.).

in vivo = settings: hGCGR.ob/ob, mouse, 3 mg/kg
hepatic hGCGR = biological target: T2, hepatic hGCGR (Homo sapiens, UniProt P47871); assay: In vivo inhibition of hepatic 125I-glucagon binding (hGCGR occupancy) in hGCGR mouse
T2 construct: a transgenic line of mouse that expresses the hGCGR instead of the murine GCGR; from tissue; host or cells: liver of hGCGR mouse, in vivo
Method: Inhibition of ^125I-glucagon binding to hGCGR (a measure of hGCGR occupancy by antagonist) was assayed in hGCGR mouse liver in vivo as previously described. Glycogen content of perfused hGCGR mouse liver was measured as previously described. In brief, livers were perfused ex vivo with Ringers solution containing 6.7 mM [2-^13C]pyruvate while ^13C content (indicative of accumulated [^13C]glycogen) was monitored dynamically by nuclear magnetic resonance imaging.
Figure 2 In vivo inhibition of hepatic ^125I-glucagon binding in the hGCGR mouse following (A) acute and (B) chronic dosing with GRA1. The data are mean (±SEM) percent reductions in liver ^125I-glucagon content measured (A) 1, 3, 5, and 8 h after a single oral dose of 3 mg/kg GRA1, and (B) after treatment for 30 days with control diet or food/drug admixtures that provided 3, 6, 10, or 30 mg/kg·day GRA1.

[2] = Pharmacokinetics / plasma GRA1 concentrations in hGCGR mice; type: in vivo, hGCGR mouse; settings: single oral dose 2 mg/kg

T2 sequence (P47871 26-477): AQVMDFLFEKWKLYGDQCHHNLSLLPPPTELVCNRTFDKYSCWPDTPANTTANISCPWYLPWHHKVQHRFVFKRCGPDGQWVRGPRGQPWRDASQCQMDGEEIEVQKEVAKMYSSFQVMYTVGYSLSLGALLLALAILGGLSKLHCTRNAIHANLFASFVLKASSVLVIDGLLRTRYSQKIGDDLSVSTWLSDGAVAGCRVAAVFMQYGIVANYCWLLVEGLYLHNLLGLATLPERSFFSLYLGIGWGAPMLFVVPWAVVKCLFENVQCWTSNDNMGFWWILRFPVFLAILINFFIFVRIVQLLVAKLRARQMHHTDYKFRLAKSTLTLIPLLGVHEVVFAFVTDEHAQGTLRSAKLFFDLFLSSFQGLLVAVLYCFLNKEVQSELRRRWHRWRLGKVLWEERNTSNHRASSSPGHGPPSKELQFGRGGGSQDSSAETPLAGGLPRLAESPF

Question: Which HbA1c (hGCGR HFD/STZ mice; 5 weeks of treatment, GRA1 10 mg/kg, Des-F-sita 200 mg/kg, control diet 6.1±0.4) does the source give for `COc1ccc2cc(-c3cc(-c4cc(C(F)(F)F)ccc4F)nn3[C@@H](C)c3ccc(C(=O)NCCC(=O)O)cc3)ccc2c1` [GRA1, N-[4-((1S)-1-{3-(2-fluoro-5-trifluoromethylphenyl)-5-[6-methoxynaphth-2-yl]-1H-pyrazol-1-yl}ethyl)benzoyl]-β-alanine] here?
Answer: 5.6±0.4%

Question: What about the “6-h fasting blood glucose” value (hGCGR HFD/STZ mice; 5 weeks of treatment, GRA1 10 mg/kg, Des-F-sita 200 mg/kg, control diet 323±33) of the same compound?
Answer: 297 ± 39 mg/dL

Question: And the “Antihyperglycemic effect during chronic dosing (non-fasted blood glucose)” value (hGCGR HFD/STZ mice; 6 weeks, GRA1 10 mg/kg·day, des-fluoro-sitagliptin 200 mg/kg·day)?
Answer: significant and sustained

Question: And the “Liver Triglyceride” value (hGCGR HFD/STZ mice; 6 weeks, necropsy tissue, GRA1 10 mg/kg, Des-F-sita 200 mg/kg, control diet 143±10)?
Answer: 163 ± 11 µg/mg

Question: And the Free fatty acid (hGCGR HFD/STZ mice; 6 weeks, terminal plasma, GRA1 10 mg/kg, Des-F-sita 200 mg/kg, control diet 1.4±0.2)?
Answer: 1.3 ± 0.3 mM

Question: And the “Active GLP-1” value (hGCGR HFD/STZ mice; 6 weeks, terminal plasma, GRA1 10 mg/kg, Des-F-sita 200 mg/kg, control diet 2.5±0.1)?
Answer: 2.7 ± 0.1 pM

Question: What about the “Inactive GLP-1” value (hGCGR HFD/STZ mice; 6 weeks, terminal plasma, GRA1 10 mg/kg, Des-F-sita 200 mg/kg, control diet 8.1±1.1) of the same compound?
Answer: 8.6 ± 0.4 pM

Question: And the Plasma glucagon (hGCGR HFD/STZ mice; 6 weeks, terminal plasma, GRA1 10 mg/kg, Des-F-sita 200 mg/kg, control diet 133±21)?
Answer: 209±24* pg/ml

Question: What about the Triglyceride (hGCGR HFD/STZ mice; 6 weeks, terminal plasma, GRA1 10 mg/kg, Des-F-sita 200 mg/kg, control diet 184±26) of the same compound?
Answer: 145±22* mg/dL

Question: What about the “Blood glucose after single dose versus non-diabetic controls” value (hGCGR HFD/STZ mice; single dose 10 mg/kg) of the same compound?
Answer: comparable to those observed in non-diabetic control animals for 24 h

Question: And the “Effect on blood glucose, single dose” value (hGCGR HFD/STZ mice; single doses of 3 and 10 mg/kg)?
Answer: reduced blood glucose significantly and substantially

Question: What about the IC50 [1] of the same compound?
Answer: 0.933 µM

Question: And the concentration at 1 h (in vivo)?
Answer: 1120 ± 800 nM

Question: And the concentration at 3 h (in vivo)?
Answer: 920 ± 100 nM

Question: And the receptor occupancy at 3 mg/kg (hepatic hGCGR; 30 days food admixture, 3 mg/kg·day, read-out: Receptor occupancy)?
Answer: 71%

Question: And the receptor occupancy at 6 mg/kg (hepatic hGCGR; 30 days food admixture, 6 mg/kg·day)?
Answer: 78%

Question: And the receptor occupancy at 10 mg/kg (hepatic hGCGR; 30 days food admixture, 10 mg/kg·day)?
Answer: 83%

Question: And the receptor occupancy at 30 mg/kg (hepatic hGCGR; 30 days food admixture, 30 mg/kg·day)?
Answer: 93%

Question: And the receptor occupancy at 3 mg/kg (hepatic hGCGR; po, single oral dose 3 mg/kg, 1 h postdose, read-out: Receptor occupancy)?
Answer: 64%

Question: What about the receptor occupancy at 3 mg/kg (hepatic hGCGR; po, single oral dose 3 mg/kg, 3 h postdose, read-out: Receptor occupancy) of the same compound?
Answer: 71%

Question: What about the receptor occupancy at 3 mg/kg (hepatic hGCGR; po, single oral dose 3 mg/kg, 5 h postdose, read-out: Receptor occupancy) of the same compound?
Answer: 65%

Question: And the receptor occupancy at 3 mg/kg (hepatic hGCGR; po, single oral dose 3 mg/kg, 8 h postdose, read-out: Receptor occupancy)?
Answer: 73%

Question: What about the receptor occupancy at 3 mg/kg (hepatic hGCGR; po, single oral dose 3 mg/kg, for 1–8 h, read-out: Reduction of in vivo occupancy of hepatic hGCGR by 125I-glucagon) of the same compound?
Answer: 64 to 73%

Question: What about the half-life ([2]; mouse, plasma, read-out: Apparent plasma terminal half-life (converted)) of the same compound?
Answer: 6.8 h

Question: What about the “Mean rate of absorption from the gut” value [2] of the same compound?
Answer: 69%

Question: What about the Route of excretion [2] of the same compound?
Answer: nearly all absorbed drug was subsequently excreted unchanged via the bile

Reference: PMC3501516, “Anti-Diabetic Efficacy and Impact on Amino Acid Metabolism of GRA1, a Novel Small-Molecule Glucagon Receptor Antagonist” (PLoS ONE, 2012)
